{"source": "paper PMC5618429", "about": "“Kempopeptin C, a Novel Marine-Derived Serine Protease Inhibitor Targeting Invasive Breast Cancer” (Marine Drugs, 2017)", "key": {"[1]": {"tested_on": "CDCP1 cleavage in MDA-MB-231 cells", "test": "Cleavage of cellular CDCP1 in MDA-MB-231 supplemented with exogenous recombinant human matriptase", "assay_type": "cell-based", "conditions": "MDA-MB-231 + 10 nM recombinant human matriptase, 24 h, different concentrations", "protocol": "Figure 6 The effect of kempopeptins B and C (2 and 3) on CDCP1 cleavage in MDA-MB-231. (A) MDA-MB-231 cells were treated for 72 h with different concentrations of the test compounds. Following 72 h, the lysates were collected and analyzed by Western blot. (B) MDA-MB-231 cells were treated at different time points with 100 µM of kempopeptin C (3). Following 6 h, 12 h and 24 h, the lysates were collected and analyzed by Western blot. Dexamethasone (Dex) was used as a positive control. (C) MDA-MB-231 cells treated for 24 h with different concentrations of 3 in the presence of 10 nM recombinant human matriptase. Cell lysates were harvested and analyzed by Western blot. (D) Densitometric analysis of the full-length, LMW of CDCP1 and actin bands in (C).\nIn this experiment, we aimed to investigate the ability of 3 to inhibit cell-expressed CDCP1 rather than the purified recombinant protein in vitro. In contrast to the well-controlled in vitro assay, several factors might influence the extracellular matriptase activity in the cell-based assay; for example, the occurrence of additional secreted cellular factors, differences in pH, in addition to the unknown enzyme:substrate:inhibitor ratio. […] Additionally, matriptase is one of at least two other proteases known to process CDCP1, where plasmin is the main protease cleaving CDCP1 in MDA-MB-231 cells. […]"}, "[2]": {"molecular_target": "T1, 20S proteasome (trypsin-like activity) (Homo sapiens, UniProt Q99436)", "T1 construct": "purchased Enzo Life Sciences", "test": "Proteasome Glo Trypsin-Like Activity Assay", "assay_type": "biochemical", "conditions": "10 and 1 µM, in vitro", "protocol": "The inhibition of proteasomes was assessed using the Proteasome Glo Trypsin-Like Activity Assay from Promega according to the manufacturer’s instructions. Briefly, in white 96-well plates, kempopeptin C (3) (10 and 1 µM final concentration) was incubated at room temperature with 0.1 µg 20S proteasome (Enzo Life Sciences, Farmingdale, NY, USA) for 10 min to allow enzyme inhibitor interactions. Following the incubation period, the detection reagent containing Z-LRR-aminoluciferin substrate was added. The plate was gently mixed at 400 rpm for 30 s and then incubated at room temperature for 10 min. The luminescence signal was then measured using the EnVision plate reader (PerkinElmer, Waltham, MA, USA). Epoxomicin was used as a positive control.\nEffect of kempopeptin C on the trypsin- like activity of\nKempopeptin C (10 µM) Kempopeptin C (1 µM) Epoxomicin (5 µM)\nFigure S2. Effect of kempopeptin C (3) on the proteasome activity in vitro assessed using proteasome Glo trypsin- like\nactivity assay (Promega)."}}}
{"smiles": "CCCC(=O)NC(C(=O)NC1C(=O)NC(CCCCN)C(=O)NC2CCC(O)N(C2=O)C(C(C)CC)C(=O)N(C)C(Cc2ccc(OC)c(Cl)c2)C(=O)NC(C(C)C)C(=O)OC1C)C(C)C", "note": "(stereo not drawn) [Kempopeptin C, kempopeptin C]", "values": [{"measurement": "Reduction of cleavage of cellular CDCP1 in presence of exogenous matriptase", "setting": "[1]", "value": "reduced the cleavage of CDCP1"}, {"measurement": "Reduction of cleavage of cellular CDCP1 in presence of exogenous matriptase", "setting": "[1]; listed as Kempopeptin C (3)", "value": "slight dose-dependent reduction in the cleavage of the full-length form"}, {"measurement": "Effect on trypsin-like activity of proteasomes", "setting": "[2]", "value": "did not inhibit the trypsin-like activity of proteasomes"}]}
